Structures can show the parent of a compound that is named as a salt.
Test: UV-VIS absorption spectra (optical property test)
Assay type: physicochemical
Conditions: 10 μM, DMSO solution; for Absorbance × 10^4: at maximum absorption peak
Description: The UV-VIS absorption spectra of the compounds (10 μM, DMSO solution) were detected using Shimadzu UV2600 spectrophotometer, and the maximum absorption peak and absorbance of each compound were obtained.

| Compound | Absorbance × 10^4 | Absorption peak |
| --- | --- | --- |
| 2-((E)-2-((E)-2-bromo-3-(2-((E)-3,3-dimethyl-1-(6-oxo-6-phenoxyhexyl)indolin-2-ylidene)ethenyl)cyclohex-1-en-1-yl)ethenyl)-1,3,3-trimethyl-3H-indol-1-ium 2,2,2-trifluoroacetate [Example 58] | 2.21 | – |
| 2-((E)-2-((E)-2-chloro-3-(2-((E)-3,3-dimethyl-1-(2-((5-oxo-5-phenoxypentyl)oxy)ethyl) indolin-2-ylidene)ethenyl)cyclohex-1-en-1-yl)ethenyl)-3,3-dimethyl-1-(2-((5-oxo-5-phenoxypentyl)oxy)ethyl)-3H-indol-1-ium [Example 37B] | 1.563 | 801 nm |
| 2-((E)-2-((E)-2-chloro-3-(2-((E)-3,3-dimethyl-1-(6-oxo-6-(phenylamino)hexyl)indolin-2-ylidene)ethenyl)cyclohex-1-en-1-yl)ethenyl)-3,3-dimethyl-1-(6-oxo-6-(phenylamino) hexyl)-3H-indol-1-ium 2,2,2-trifluoroacetate [Example 27B] | 2.117 | 797 nm |
| 5-carboxy-2-((E)-2-((E)-2-chloro-3-(2-((E)-3,3-dimethyl-1-(2-(3-oxo-3-phenoxypropoxy)ethyl)indolin-2-ylidene)ethenyl)cyclohex-1-en-1-yl)ethenyl)-1-ethyl-3,3-dimethyl-3H-indol-1-ium 2,2,2-trifluoroacetate [Example 123] | 1.3 | – |
| 5-carboxy-2-((E)-2-((E)-2-chloro-3-(2-((E)-3,3-dimethyl-1-(6-oxo-6-phenoxyhexyl)indolin-2-ylidene)ethenyl)cyclohex-1-en-1-yl)ethenyl)-1,3,3-trimethyl-3H-indol-1-ium 2,2,2-trifluoroacetate [Example 120] | 1.73 | – |
| 5-carboxy-2-((E)-2-((E)-2-chloro-3-(2-((E)-3,3-dimethyl-1-(6-oxo-6-phenoxyhexyl)indolin-2-ylidene)ethenyl)cyclohex-1-en-1-yl)ethenyl)-1-ethyl-3,3-dimethyl-3H-indol-1-ium 2,2,2-trifluoroacetate [Example 118] | 1.73 | – |
| CC[N+]1=C(/C=C/C2=C(Cl)C(=C/C=C3/N(CCCCCC(=O)Oc4ccccc4)c4ccc5ccccc5c4C3(C)C)/CC2)C(C)(C)c2c1ccc1ccccc21 [Example 1A, 2-((E)-2-((E)-2-chloro-3-((E)-2-(1,1-dimethyl-3-(6-oxo-6-phenoxyhexyl)-1,3-dihydro-2H-benzo[e]indol-2-ylidene)ethenyl)cyclopent-1-en-1-yl)ethenyl)-3-ethyl-1,1-dimethyl-1H-benzo[e]indol-3-ium Chloride] | 2.82 | 860 nm |
| CC[N+]1=C(/C=C/C2=C(Cl)C(=C/C=C3/N(CCCCCC(=O)O)c4ccc5ccccc5c4C3(C)C)/CC2)C(C)(C)c2c1ccc1ccccc21 [Example 1B, 2-((E)-2-((E)-3-((E)-2-(3-(5-carboxypentyl)-1,1-dimethyl-1,3-dihydro-2H-benzo[e]indol-2-ylidene)ethenyl)-2-chlorocyclopent-1-en-1-yl)ethenyl)-3-ethyl-1,1-dimethyl-1H-benzo[e]indol-3-ium Chloride] | 2.03 | 859.5 nm |
| CC[N+]1=C(/C=C/C2=C(Cl)C(=C/C=C3/N(Cc4ccc(C(=O)Oc5ccccc5)cc4)c4ccc5ccccc5c4C3(C)C)/CCC2)C(C)(C)c2c1ccc1ccccc21 [Example 3] | 1.88 | 835 nm |
| CC1(C)C(/C=C/C2=C(Cl)C(=C/C=C3/N(CCCCCC(=O)Oc4ccccc4)c4ccccc4C3(C)C)/CCC2)=[N+](CCCCCC(=O)Oc2ccccc2)c2ccccc21 [Example 5, 2-((E)-2-((E)-2-chloro-3-(2-((E)-3,3-dimethyl-1-(6-oxo-6-phenoxyhexyl)indolin-2-ylidene)ethenyl)cyclohex-1-en-1-yl)ethenyl)-3,3-dimethyl-1-(6-oxo-6-phenoxyhexyl)-3H-indol-1-ium Chloride] | 1.17 | 796.5 nm |
| CC1(C)C(/C=C/C2=C(Cl)C(=C/C=C3/N(CCCCCC(=O)Oc4ccccc4)c4ccccc4C3(C)C)/CCC2)=[N+](CCCCCC(=O)O)c2ccccc21 [Example 11] | 2.27 | 796.5 nm |
| CC[N+]1=C(/C=C/C2=C(Oc3ccccc3)C(=C/C=C3/N(CCCCCC(=O)Oc4ccccc4)c4ccccc4C3(C)C)/CCC2)C(C)(C)c2ccccc21 [Example 12, 2-((E)-2-((E)-3-(2-((E)-3,3-dimethyl-1-(6-oxo-6-phenoxyhexyl)indolin-2-ylidene)ethenyl)-2-phenoxycyclohex-1-en-1-yl)ethenyl)-1-ethyl-3,3-dimethyl-3H-indol-1-ium Chloride] | 2.07 | 781.5 nm |
| CCN1/C(=C/C=C2\CCCC(/C=C/C3=[N+](CC)c4ccccc4C3(C)C)=C2NCCCCCC(=O)O)C(C)(C)c2ccccc21 [Example 13, 2-((E)-2-((E)-2-((5-carboxypentyl)amino)-3-(2-((E)-1-ethyl-3,3-dimethylindolin-2-ylidene)ethenyl)cyclohex-1-en-1-yl)ethenyl)-1-ethyl-3,3-dimethyl-3H-indol-1-ium Formate] | 0.68 | 632 nm |
| CC1(C)C(/C=C/C2=C(Cl)C(=C/C=C3/N(CCCCCC(=O)Oc4ccccc4)c4ccccc4C3(C)C)/C[N+](C)(C)C2)=[N+](CCCCCC(=O)Oc2ccccc2)c2ccccc21 [Example 14, 2-((E)-2-((E)-4-chloro-5-(2-((E)-3,3-dimethyl-1-(6-oxo-6-phenoxyhexyl)indolin-2-ylidene)ethenyl)-1,1-dimethyl-1,2,5,6-tetrahydropyridin-1-ium-3-yl)ethenyl)-3,3-dimethyl-1-(6-oxo-6-phenoxyhexyl)-3H-indol-1-ium Dichloride] | 1.71 | 767.5 nm |
| CC[N+]1=C(/C=C/C2=C(Cl)C(=C/C=C3/N(CCCCCC(=O)Oc4ccccc4)c4ccccc4C3(C)C)/C[N+](C)(C)C2)C(C)(C)c2ccccc21 [Example 16, 2-((E)-2-((E)-4-chloro-5-(2-((E)-3,3-dimethyl-1-(6-oxo-6-phenoxyhexyl)indolin-2-ylidene)ethenyl)-1,1-dimethyl-1,2,5,6-tetrahydropyridin-1-ium-3-yl)ethenyl)-1-ethyl-3,3-dimethyl-3H-indol-1-ium Dichloride] | 1.71 | 766 nm |
| CC1(C)C(/C=C/C2=C(Cl)C(=C/C=C3/N(CCC(=O)O)c4ccccc4C3(C)C)/C[N+](C)(C)C2)=[N+](CCC(=O)O)c2ccccc21 [Example 17, 1-(2-carboxyethyl)-2-((E)-2-((E)-5-(2-((E)-1-(2-carboxyethyl)-3,3-dimethylindolin-2-ylidene)ethenyl)-4-chloro-1,1-dimethyl-1,2,5,6-tetrahydropyridin-1-ium-3-yl)ethenyl)-3,3-dimethyl-3H-indol-1-ium Ditrifluoroacetate] | 0.88 | 766 nm |

From patent US20260191998A1, “INDOLE PHTHALOCYANINE COMPOUND, PREPARATION METHOD THEREFOR, AND USE THEREOF IN TUMOR DIAGNOSIS IMAGING” (JIANGSU YAHONG MEDITECH CO., LTD., priority 2022, published 2026)
